Results: patent US9131720B2, “High-potency sweetener composition with phytosterol and compositions sweetened therewith” (The Coca-Cola Company, priority 2005, dated 2015)

Assays:
[1] = Sensory evaluation of sweetness linger by a panel of experts; format: in vivo; conditions: for Sweetness linger rating: 3-4 min after water rinse; for Sweetness Linger rating defined for control samples: scale anchors of the protocol, sucrose, 500 ppm REBA control sample
Method: In a particular embodiment, a panel of assessors is used to measure the reduction of sweetness linger. Briefly described, a panel of assessors (generally 8 to 12 individuals) is trained to evaluate sweetness perception and measure sweetness at several time points from when the sample is initially taken into the mouth until 3 minutes after it has been expectorated. […] A decrease in score for a time point measured after the sample has cleared the mouth indicates there has been a reduction in sweetness perception.
The panel of assessors may be trained using procedures well known to those of ordinary skill in the art. In a particular embodiment, the panel of assessors may be trained using the Spectrum™ Descriptive Analysis Method (Meilgaard et al, Sensory Evaluation Techniques, 3rd edition, Chapter 11). Desirably, the focus of training should be the recognition of and the measure of the basic tastes; specifically, sweet. In order to ensure accuracy and reproducibility of results, each assessor should repeat the measure of the reduction of sweetness linger about three to about five times per sample, taking at least a five minute break between each repetition and/or sample and rinsing well with water to clear the mouth.
Generally, the method of measuring sweetness comprises taking a 10 mL sample into the mouth, holding the sample in the mouth for 5 seconds and gently swirling the sample in the mouth, rating the sweetness intensity perceived at 5 seconds, expectorating the sample (without swallowing following expectorating the sample), rinsing with one mouthful of water (e.g., vigorously moving water in mouth as if with mouth wash) and expectorating the rinse water, rating the sweetness intensity perceived immediately upon expectorating the rinse water, waiting 45 seconds and, while waling those 45 seconds, identifying the time of maximum perceived sweetness intensity and rating the sweetness intensity at that time (moving the mouth normally and swallowing as needed), rating the sweetness intensity after another 10 seconds, rating the sweetness intensity after another 60 seconds (cumulative 120 seconds after rinse), and rating the sweetness intensity after still another 60 seconds (cumulative 180 seconds after rinse). Between samples take a 5 minute break, rinsing well with water to clear the mouth.
Sensory evaluation of the samples prepared in Example Set G was carried out under the following protocol, similar to that described hereinabove. In this test protocol, none of the samples were swallowed. All samples were expectorated and the mouth was rinsed with water after the tasting. Immediately upon sensing maximal sweetness, the sample was expectorated, the mouth was rinsed with water and the rate of sweetness decay (“Sweetness Linger”) was measured, where attention was focused on the sweetness 3-4 min after the water rinse. After sample tasting was complete, a salty oyster cracker was chewed followed by a water rinse, and at least 5 minutes followed before tasting the next sample. The sweetness linger was rated by a panel of experts in the sensory evaluation of foods and beverages using the following scale: 0=no sweetness linger, 1=very slight sweetness linger, 2=slight sweetness linger, 3 moderate sweetness linger, 4=moderately high sweetness linger, 5=high sweetness linger.
The “Sweetness Linger” rating for sucrose observed by this protocol is defined as 0. The Sweetness Linger of a 500 ppm of REBA control sample is defined as 5. […]

[2] = format: physicochemical
Method: A solution of rebaudioside A (>97% pure by HPLC) was prepared in double distilled water (12.5 gm in 50 mL, 25% concentration) by stirring the mixture at 40° C. for 5 minutes. An amorphous rebaudioside A polymorph was formed by immediately using the clear solution for spray drying with the Lab-Plant spray drier SD-04 instrument (Lab-Plant Ltd., West Yorkshire, U.K.). The solution was fed through the feed pump into the nozzle atomizer which atomized it into a spray of droplets with the help of a constant flow of nitrogen/air. […] This dry powder (11-12 g, H2O 6.74%) was discharged continuously from the drying chamber and was collected in a bottle.

[3] = Rate of dissolution in H2O at 25° C. of rebaudioside A polymorphs; format: physicochemical
[4] = 500 ppm REBA (H41: 360 ppm) in carbon-treated water with phosphoric acid (75%), pH 2.4-2.5, scale 0=no to 5=high sweetness linger

| Compound | Sweetness linger rating [1, 4] | Sweetness Linger rating defined for control samples [1] | Sweetness linger rating ([1]; 400 ppm REBA in citric acid/potassium citrate composition equivalent to diet lemon-lime beverage, scale 0=no, 1=very slight, 2=slight, 3=moderate, 4=moderately high, 5=high sweetness linger) | Solubility in water at room temperature [2] | Rate of dissolution in H2O at 25° C. [3] |
| --- | --- | --- | --- | --- | --- |
| OC[C@H]1O[C@@](CO)(O[C@H]2O[C@H](CO)[C@@H](O)[C@H](O)[C@H]2O)[C@@H](O)[C@@H]1O [sugar, sucrose] | 0 | 0 |  |  |  |
| rebaudioside A | 5 | 5 | 5 |  |  |
| rebaudioside A [Form 4] |  |  |  | > 35.0% | (>35.0%/ %/5 minutes |
